According to patent US5976781A, “Determining plasmodium in blood by sphingomyelin synthase activity” (The Board of Trustees of the Leland Stanford Junior …, priority 1995, dated 1999):

What was measured:
[1] = system: P. falciparum sphingomyelin synthase; assay: Inhibition of plasmodial sphingomyelin biosynthesis in intact infected erythrocytes (C6-NBD-ceramide to C6-NBD-sphingomyelin); assay type: cell-based, Plasmodium falciparum; conditions: for effect on sphingomyelin synthase enzyme activity: 5 μM compound (Example 3); for [%] inhibition of sphingomyelin biosynthetic activity: 5 μM compound
Protocol: 1×10^8 infected cells 24 h after invasion were washed serum-free in RPMI 1640 and preincubated for thirty min at 37° C. in 1 ml of RPMI 1640 containing 0-5 μM or 0-500 μM of PPMP. (C6-NBD-ceramide (N-[7-(4-nitrobenzo-2-oxa-1,3-diazide)]-6-aminocaproyl-D-erythro-sphingosine) was added to each sample at a final concentration of 5 μM, the samples further incubated for 30 min at 37° C. and cellular lipids extracted. C6-NBD-sphingomyelin was resolved by TLC and quantitated by fluorescence spectrophotometry as described previously. Bligh, E. G. and Dyer, W. Y. (1959) A rapid method for total lipid extraction and purification., Can. J. Biochem. Physiol. 37: 911-917. Haldar, K., Uyetake, L., Ahori, N., Elmendorf, H. G. and Lu, W-1. (1991) The accumulation and metabolism of a fluorescent ceramide derivative in Plasmodium falciparum-infected erythrocytes., Mo. Biochem. Parasitol. 49: 143-156. Elmendorf, H. G. and Haldar, K. (1994) Plasmodium falciparum exports the Golgi marker sphingomyelin synthase into a tubovesicular network in the cytoplasm of mature erythrocytes., J. Cell Biol. 124: 449-462. Each value obtained represented the mean of triplicate determinations from five experiments. The arrow bars indicate the standard deviations. The results are depicted in FIG. 1.
(§1) P. falciparum strain FCB was used for all experiments and cultured in vitro in according to a modification of the method of Trager and Jensen left off. Trager, W. and Jensen, J. B. (1976) Human malaria in continuous culture., Science (Wash. D.C.) 193: 673-675 Haldar, K., Ferguson, M. A. J. and Cross, G. A. M. (1985) Acylation of a Plasmodium falciparum merozoite surface antigen via sn-1, 2-diacyl glycerol. J. Biol. Chem. 260; 4969-4974 The culture medium contained RPMI 1640 supplemented with 25 Mm hepes, Ph 7.4/[…]/92 μM hypoxanthine/0.18% sodium bicarbonate/25 μM gentamicin and 10% AB^+ human sera. The parasites were grown in A^+ erythrocytes at 2.5-5% hematocrit. Parasite cultures were synchronized by separation of the early and late stages on a Percoll gradient. The subsequent reincubation of these stages in culture were used to obtain cells 12-24h in the life cycle. Inhibition of sphingomyelin biosynthetic activity using 5 μM of the various compounds was carried out as described in Example 1. 5 μM of the various compounds were added to 0-12 h rings in the culture medium and cells were examined by Giemsa staining after 24 h.

P. falciparum strain FCB = assay: Inhibition of intraerythrocytic growth in culture (Giemsa staining after 24 h); assay type: cell-based, Plasmodium falciparum; conditions: 5 μM compound added to 0-12 h rings
From the text: as §1

DNA synthesis = assay: Effect on DNA synthesis; assay type: cell-based
protein synthesis = assay: Effect on protein synthesis; assay type: cell-based
P. falciparum schizonts = assay: Schizont maturation, merozoite invasion and ring viability in the presence of drug; assay type: cell-based, Plasmodium falciparum; conditions: for fate of schizonts greater than 40 h in the cycle: in the presence of 5 μM drug
[2] = system: P. falciparum sphingomyelin synthase; assay: Inhibition of sphingomyelin biosynthesis in hypotonically lysed infected erythrocytes and fractions; assay type: biochemical, Plasmodium falciparum
Protocol: Cells were washed serum-free in PBS and intact cells were incubated in PBS. Cells were lysed in 10 volumes of hypotonic buffer. Pellets and supernatants were separated by centrifugation at 10^4 ×G for 10 min at 4° C. Inhibition of sphingomyelin biosynthetic activity was carried out as described in Example 1. Glutamate dehydrogenase, a parasite cytosolic activity, was assayed using 10 μM alpha-ketoglutarate and 0.1 μM NADPH for 1 h at 37° C. by measuring the absorption at 340 nm in a spectrophotometer. The following table indicates the results

[3] = system: tubovesicular membrane reticulum (TVM) of P. falciparum-infected erythrocytes; assay: Tubovesicular membrane (TVM) morphology by confocal microscopy with C5-DMB-ceramide; assay type: cell-based, Plasmodium falciparum; conditions: 5 μM PPMP; C5 DMB-ceramide staining; 240 optical sections, 20 cells
Protocol: Schizont-stage parasites isolated over Percoll were allowed to invade in the presence of RPMI 1640 containing 10% human serum or in the presence of RPMI 1640 containing 10% human serum and 5 μM PPMP. 1×10^8 infected erythrocytes of the appropriate stage were incubated in 1 ml of RPMI 1640 supplemented with 2 mg/ml defatted BSA and 20 μM C5 -DMB-ceramide. Cells were washed and fixed as described in Example 5. Sequential micrographs were taken on a custom made laser confocal microscope at 400 nm intervals along the Z axis. Raw data were processed as described previously.

P. falciparum = assay: Intraerythrocytic development in long term culture, parasitemia over consecutive cycles; assay type: cell-based, Plasmodium falciparum
Protocol: Synchronized cultures 12 h after invasion were subjected to different concentrations of PPMP. Parasitemias of drug-treated cultures were determined at various time points during two intraerythrocytic cycles and compared to cells grown in the absence of drug.
The effect of the single lipid analogs to inhibit parasite development in long term culture in consecutive cycles of the parasite growth were investigated. The studies were initiated with synchronized, young rings (0-12 h) at 10% parasitemia. In order to ensure healthy growth of the malaria parasite in vitro, the parasitemias of the cultures are not allowed to exceed 10%. Yet under normal conditions a 3-6 fold increase in parasitemias is detected with each round of invasion: thus for each new cycle, the cultures were diluted 4-fold into fresh erythrocytes in the absence or presence of the drug. […] The lowest effective, killing concentration of PDMP over three cycles of growth is 1.0 μM.

How did the “effect on sphingomyelin synthase enzyme activity” value [1] turn out when CCCCCCCCCCCCCCC[C@H](O)[C@@H](N)CO (racemic) [dl-dihydrosphingosine] was run?
Its value is “no effect”.

What about the “[%] inhibition of sphingomyelin biosynthetic activity” value ([1]; infected erythrocytes) of the same compound?
Its value is 4%.

What about the “[%] inhibition of growth” value (P. falciparum strain FCB) of the same compound?
The value was 8%.

Which “[%] inhibition of sphingomyelin biosynthetic activity” value ([1]; infected erythrocytes) does the source give for CCCCCCCCCC(=O)N[C@H](CN1CCOCC1)[C@H](O)c1ccccc1 (relative stereo) [PDMP, dl-threo-1-phenyl-2-decanoylamino-3-morpholino-1-propanol] here?
The value was 31%.

And the “inhibition of DNA synthesis” value (DNA synthesis)?
The value was “not inhibitory”.

And the “inhibition of protein synthesis” value (protein synthesis)?
The value was “not inhibitory”.

And the “fate of schizonts greater than 40 h in the cycle” value (P. falciparum schizonts)?
The value was “mature and rupture”.

Which results are given for CCCCCCCCCCCCCCCC(=O)N[C@H](CN1CCOCC1)[C@H](O)c1ccccc1 (relative stereo) [PPMP, dl-threo-1-phenyl-2-palmitoylamino-3-morpholino-1-propanol]?
[%] inhibition of sphingomyelin biosynthetic activity ([1]; infected erythrocytes): 36%; total cellular sphingomyelin synthase activity inhibited ([1]; 500 μM PPMP, infected erythrocytes): 80-90%; change of sphingomyelin synthase activity ([1]; 0.05-0.5 μM PPMP, infected erythrocytes): initial, rapid decrease; average inhibition of sphingomyelin synthase activity ([1]; 1-5 μM PPMP, infected erythrocytes): 35%; concentration at which the sensitive pool of sphingomyelin synthase activity is completely inhibited ([1]; infected erythrocytes): 1 to 5 µM; inhibition of sphingomyelin biosynthesis at 5 μM PPMP [%] ([1]; intact cells, 5 μM PPMP): 35%; inhibition of sphingomyelin biosynthesis at 5 μM PPMP [%] ([2]; hypotonic lysates): 33%; inhibition of sphingomyelin biosynthesis at 5 μM PPMP [%] ([2]; pellet of lysate (10^4 xG)): 30%; inhibition of sphingomyelin biosynthesis at 5 μM PPMP [%] ([2]; supernatant of lysate (10^4 xG)): 3%; TVM morphology of rings formed in the presence of drug [3]: markedly devoid of tubular connections; effect on development of trophozoite stage parasites (P. falciparum): blocks; relative efficacy in long term growth inhibition (P. falciparum): more effective than PDMP; effect on rings in their first cycle growth (P. falciparum; 5 μM drug): completely inhibits; development through the first cycle (P. falciparum; concentrations as low as 0.05 μM): do not stop development through the first cycle; effect on schizont maturation or merozoite invasion into erythrocytes (P. falciparum schizonts; 5 μM PPMP): not to block; fate of schizonts greater than 40 h in the cycle (P. falciparum schizonts): mature and rupture; development of rings after being washed free of the drug (P. falciparum schizonts; rings formed in 5 μM PPMP): developed normally

Which results are given for CCCCCCCCCC(=O)N[C@@H](CN1CCOCC1)[C@H](O)c1ccccc1 (relative stereo) [dl-erythro-PDMP]?
effect on sphingomyelin synthase enzyme activity [1]: no effect; [%] inhibition of sphingomyelin biosynthetic activity ([1]; infected erythrocytes): 3%

Which results are given for CCN(CC)CCO[C@H]1CC[C@@]2(C)C(=CC[C@@H]3[C@@H]2CC[C@]2(C)C(=O)CC[C@@H]32)C1 [U 18666 A]?
effect on sphingomyelin synthase enzyme activity [1]: no effect; [%] inhibition of sphingomyelin biosynthetic activity ([1]; infected erythrocytes): 0%

Which “effect on sphingomyelin synthase enzyme activity” value [1] does the source give for CN(C)CCCN1c2ccccc2CCc2ccccc21 [imipramine] here?
The value was “no effect”.

What about the “[%] inhibition of sphingomyelin biosynthetic activity” value ([1]; infected erythrocytes) of the same compound?
Its value is 0%.

What does the source list for CCCCCCCCCCCCC/C=C/[C@@H](O)[C@@H](N)CO [sphingosine]?
effect on sphingomyelin synthase enzyme activity [1]: no effect; [%] inhibition of sphingomyelin biosynthetic activity ([1]; infected erythrocytes): 0%

Which results are given for CCCCCCCCCCCCCCCCCCN [stearylamine]?
effect on sphingomyelin synthase enzyme activity [1]: no effect; [%] inhibition of sphingomyelin biosynthetic activity ([1]; infected erythrocytes): 0%
